Experimental data taken from paper PMC9276577, “SIRT1 pharmacological activation rescues vascular dysfunction and prevents thrombosis in MTHFR deficiency” (Cellular and Molecular Life Sciences: CMLS, 2022).

How the values were obtained:
SIRT1 [1] = biological target: T1, SIRT1 (Homo sapiens, UniProt Q96EB6); test: CETSA in MCF7 cells (Tm raised from […] °C to […] °C); assay type: cell-based; design: endogenous SIRT1 in MCF7 cells
T1 sequence (Q96EB6 2-747): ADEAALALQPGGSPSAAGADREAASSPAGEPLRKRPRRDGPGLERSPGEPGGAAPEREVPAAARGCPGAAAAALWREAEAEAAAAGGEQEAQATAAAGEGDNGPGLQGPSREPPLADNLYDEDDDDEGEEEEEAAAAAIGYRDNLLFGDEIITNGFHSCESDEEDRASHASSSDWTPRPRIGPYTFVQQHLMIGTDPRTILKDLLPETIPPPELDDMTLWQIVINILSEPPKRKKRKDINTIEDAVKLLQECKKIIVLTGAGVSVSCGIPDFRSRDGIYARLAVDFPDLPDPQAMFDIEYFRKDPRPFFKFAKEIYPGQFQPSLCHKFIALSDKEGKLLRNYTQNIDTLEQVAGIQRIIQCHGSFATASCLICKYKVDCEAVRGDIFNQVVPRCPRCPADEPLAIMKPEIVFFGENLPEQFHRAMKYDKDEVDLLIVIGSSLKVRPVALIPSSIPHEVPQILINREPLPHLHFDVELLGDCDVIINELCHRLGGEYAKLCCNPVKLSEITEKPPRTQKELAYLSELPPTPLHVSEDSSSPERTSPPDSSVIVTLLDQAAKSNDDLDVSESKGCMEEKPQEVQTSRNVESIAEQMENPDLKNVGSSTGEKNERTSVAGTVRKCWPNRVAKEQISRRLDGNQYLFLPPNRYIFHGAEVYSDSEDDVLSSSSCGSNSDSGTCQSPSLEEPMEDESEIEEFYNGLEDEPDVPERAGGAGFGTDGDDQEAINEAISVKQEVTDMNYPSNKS

SIRT1 [2] = biological target: T1, SIRT1; test: NMase-coupled fluorescence deacetylase assay (activation, AC50) on purified SIRT1; binding supported by tyrosine fluorescence quenching and CETSA in MCF7 cells; assay type: biochemical; design: SIRT1-GST purified from E. coli BL21 (full-length SIRT1 after thrombin cleavage for fluorescence quenching); details: read-out: EC50 (the source's name)

AC50 (SIRT1 [2])	Compound	CETSA in MCF7 cells (Tm raised from 46.5 °C to 51.4 °C) (SIRT1 [1])
	Oc1ccc(/C=C/c2cc(O)cc(O)c2)cc1 [RSV, resveratrol]	51.4 °C
20.11 ± 0.15 µM	ISIDE11	
